Legend:
Settings in all cases: incubation time: 72 h
BT-474 [1] = assay: normalised viability (% of control), CellTiter-Blue; higher = more viable cells (about 100 = DMSO control)
Description: (§1)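 DSRT, CellTiter-Blue viability, 72 h incubation. Signal is normalised to DMSO and benzethonium chloride controls. Value is the normalised response at dose 3.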

BT-549 [2] = assay: as above
Description: as §1

CAL-120 = assay: as above
Description: as §1

CAL-148 = assay: as above
Description: as §1

CAL-51 [3] = assay: as above
Description: as §1

CAL-85-1 [4] = assay: as above
Description: as §1

DU-4475 [5] = assay: as above
Description: as §1

HCC1143 [6] = assay: as above
Description: as §1

HCC1599 [7] = assay: as above
Description: as §1

HCC1937 = assay: as above
Description: as §1

HDQ-P1 = assay: as above
Description: as §1

Hs578T = assay: as above
Description: as §1

MDA-MB-231 [8] = assay: as above
Description: as §1

MDA-MB-436 [9] = assay: as above
Description: as §1

MDA-MB-453 [10] = assay: as above
Description: as §1

MDA-MB-468 [11] = assay: as above
Description: as §1

MFM-223 = assay: as above
Description: as §1

SK-BR-3 [12] = assay: as above
Description: as §1

MDA-MB-453 [13] = assay: normalised viability (% of control), CellTiter-Blue; higher = more viable cells (about 100 = DMSO control); remark: listed apart in the source
Outline: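 Seeded at 20 µl suspension per well onto compound-loaded 384-well plates, breast cancer cell lines were incubated 72 h. CellTiter-Blue fluorescence at 560/590 nm was then read, with each plate normalised to vehicle (100) and a positive kill control (0). Normalised viability is reported at a single listed concentration of the series.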

BT-474 [14] = assay: normalised viability (% of control), CellTiter-Blue; higher = more viable cells (100 = DMSO, 0 = benzethonium chloride kill control)
Description: (§2)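 DSRT, CellTiter-Blue viability, 72 h incubation. Signal is normalised to DMSO and benzethonium chloride controls. Value is the normalised response at dose 1.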

BT-549 [15] = assay: as above
Description: as §2

CAL-51 [16] = assay: as above
Description: as §2

CAL-85-1 [17] = assay: as above
Description: as §2

DU-4475 [18] = assay: as above
Description: as §2

HCC1143 [19] = assay: as above
Description: as §2

HCC1599 [20] = assay: as above
Description: as §2

MDA-MB-231 [21] = assay: as above
Description: as §2

MDA-MB-436 [22] = assay: as above
Description: as §2

MDA-MB-453 [23] = assay: as above
Description: as §2

MDA-MB-468 [24] = assay: as above
Description: as §2

SK-BR-3 [25] = assay: as above
Description: as §2

Work on `Cc1cnc(NC(=O)Nc2cc(Br)c(C)cc2OC[C@@H]2CNCCO2)cn1` yielded a normalised viability (BT-474 [1]; 10 nM) of 101%, a normalised viability (BT-549 [2]; 10 nM) of 87.3% and a normalised viability (CAL-120; 10 nM) of 87.9%. It also gave a normalised viability (CAL-148; 1 nM) of 90.3%, a normalised viability (CAL-51 [3]; 1 nM) of 95% and a normalised viability (CAL-85-1 [4]; 1 nM) of 91.4%. For the same molecule, the normalised viability (DU-4475 [5]; 1 nM) was 90.8%, the normalised viability (HCC1143 [6]; 10 nM) was 82.5% and the normalised viability (HCC1599 [7]; 10 nM) was 122%. For the same molecule, the normalised viability (HCC1937; 10 nM) was 127%, the normalised viability (HDQ-P1; 1 nM) was 90.1% and the normalised viability (Hs578T; 10 nM) was 101%. It also gave a normalised viability (MDA-MB-231 [8]; 10 nM) of 103%, a normalised viability (MDA-MB-436 [9]; 10 nM) of 112% and a normalised viability (MDA-MB-453 [10]; 1 nM) of 104%. For the same molecule, the normalised viability (MDA-MB-468 [11]; 10 nM) was 104%, the normalised viability (MFM-223; 10 nM) was 89.6% and the normalised viability (SK-BR-3 [12]; 10 nM) was 88.3%. For the same molecule, the normalised viability (MDA-MB-453 [13]; 100 nM) was 88.7%, the normalised viability (BT-474 [14]; 0.1 nM) was 107% and the normalised viability (BT-549 [15]; 0.1 nM) was 87.9%. For the same molecule, the normalised viability (CAL-51 [16]; 0.1 nM) was 86.8%, the normalised viability (CAL-85-1 [17]; 0.1 nM) was 96.7% and the normalised viability (DU-4475 [18]; 0.1 nM) was 108%. For the same molecule, the normalised viability (HCC1143 [19]; 0.1 nM) was 115%, the normalised viability (HCC1599 [20]; 0.1 nM) was 114% and the normalised viability (MDA-MB-231 [21]; 0.1 nM) was 93.3%. The normalised viability (MDA-MB-436 [22]; 0.1 nM) was 119%, the normalised viability (MDA-MB-453 [23]; 0.1 nM) was 99.5% and the normalised viability (MDA-MB-468 [24]; 0.1 nM) was 110%. The normalised viability (SK-BR-3 [25]; 0.1 nM) was 91.2%.

`NCCCNCCSP(=O)(O)O` [Amifostine] gave a normalised viability (BT-474 [1]; 100 nM) of 95.8%, a normalised viability (BT-549 [2]; 100 nM) of 103% and a normalised viability (CAL-120; 100 nM) of 90.4%. For the same molecule, the normalised viability (CAL-148; 10 nM) was 93.5%, the normalised viability (CAL-51 [3]; 10 nM) was 105% and the normalised viability (CAL-85-1 [4]; 10 nM) was 90.7%. It also gave a normalised viability (DU-4475 [5]; 10 nM) of 97.3%, a normalised viability (HCC1143 [6]; 100 nM) of 78.3% and a normalised viability (HCC1599 [7]; 100 nM) of 98.2%. For the same molecule, the normalised viability (HCC1937; 100 nM) was 85.5%, the normalised viability (HDQ-P1; 10 nM) was 105% and the normalised viability (Hs578T; 100 nM) was 79.1%. The normalised viability (MDA-MB-231 [8]; 100 nM) was 93.1%, the normalised viability (MDA-MB-436 [9]; 100 nM) was 107% and the normalised viability (MDA-MB-453 [10]; 10 nM) was 85.7%. The normalised viability (MDA-MB-468 [11]; 100 nM) was 102%, the normalised viability (MFM-223; 100 nM) was 77.7% and the normalised viability (SK-BR-3 [12]; 100 nM) was 108%. It also gave a normalised viability (MDA-MB-453 [13]; 1000 nM) of 92.9%, a normalised viability (BT-474 [14]; 1 nM) of 85.7% and a normalised viability (BT-549 [15]; 1 nM) of 98%. It also gave a normalised viability (CAL-51 [16]; 1 nM) of 106%, a normalised viability (CAL-85-1 [17]; 1 nM) of 85.2% and a normalised viability (DU-4475 [18]; 1 nM) of 91.6%. The normalised viability (HCC1143 [19]; 1 nM) was 81.4%, the normalised viability (HCC1599 [20]; 1 nM) was 110% and the normalised viability (MDA-MB-231 [21]; 1 nM) was 80%. It also gave a normalised viability (MDA-MB-436 [22]; 1 nM) of 102%, a normalised viability (MDA-MB-453 [23]; 1 nM) of 97.4% and a normalised viability (MDA-MB-468 [24]; 1 nM) of 111%. The normalised viability (SK-BR-3 [25]; 1 nM) was 91.7%.

Work on `CC[C@@H]1C(=O)N(C)c2cnc(Nc3ccc(C(=O)NC4CCN(C)CC4)cc3OC)nc2N1C1CCCC1` [BI 2536] yielded a normalised viability (BT-474 [1]; 10 nM) of 44.4%, a normalised viability (BT-549 [2]; 10 nM) of 36.9% and a normalised viability (CAL-120; 10 nM) of 34.1%. For the same molecule, the normalised viability (CAL-148; 1 nM) was 105%, the normalised viability (CAL-51 [3]; 1 nM) was 89.4% and the normalised viability (CAL-85-1 [4]; 1 nM) was 90%. It also gave a normalised viability (DU-4475 [5]; 1 nM) of 91.7%, a normalised viability (HCC1143 [6]; 10 nM) of 62.8% and a normalised viability (HCC1599 [7]; 10 nM) of 90.9%. For the same molecule, the normalised viability (HCC1937; 10 nM) was 25.9%, the normalised viability (HDQ-P1; 1 nM) was 102% and the normalised viability (Hs578T; 10 nM) was 83.5%. For the same molecule, the normalised viability (MDA-MB-231 [8]; 10 nM) was 52.6%, the normalised viability (MDA-MB-436 [9]; 10 nM) was 77.8% and the normalised viability (MDA-MB-453 [10]; 1 nM) was 83.2%. For the same molecule, the normalised viability (MDA-MB-468 [11]; 10 nM) was 48.5%, the normalised viability (MFM-223; 10 nM) was 41.8% and the normalised viability (SK-BR-3 [12]; 10 nM) was 15.8%. For the same molecule, the normalised viability (MDA-MB-453 [13]; 100 nM) was 29.9%, the normalised viability (BT-474 [14]; 0.1 nM) was 101% and the normalised viability (BT-549 [15]; 0.1 nM) was 115%. The normalised viability (CAL-51 [16]; 0.1 nM) was 89.5%, the normalised viability (CAL-85-1 [17]; 0.1 nM) was 96.3% and the normalised viability (DU-4475 [18]; 0.1 nM) was 109%. The normalised viability (HCC1143 [19]; 0.1 nM) was 109%, the normalised viability (HCC1599 [20]; 0.1 nM) was 83.2% and the normalised viability (MDA-MB-231 [21]; 0.1 nM) was 105%. It also gave a normalised viability (MDA-MB-436 [22]; 0.1 nM) of 112%, a normalised viability (MDA-MB-453 [23]; 0.1 nM) of 94.7% and a normalised viability (MDA-MB-468 [24]; 0.1 nM) of 114%. For the same molecule, the normalised viability (SK-BR-3 [25]; 0.1 nM) was 98.5%.

Reference: the supplement of paper PMC4862054
